Here are results for two compounds from BindingDB's records for PubMed 8558460 (Yamanouchi Pharmaceutical, 1996).

For test [1], the target named is Glutamate receptor ionotropic, kainate 1 (Rattus norvegicus, UniProt P22756).
The target of test [2] is Glutamate receptor ionotropic, NMDA 1 (Rattus norvegicus, UniProt P35439).
The target of test [3] is Glutamate receptor 3 (Rattus norvegicus, UniProt P19492).

The Ki is a measure of affinity in units of concentration, obtained from inhibition or displacement. Lower therefore signals higher affinity.

Each structure is given as a SMILES string. Several values for one entry are separate records, joined by “and”; a condition that tells them apart may be missing. Identical values can stand only once. Some results are limits rather than exact numbers.

Glutamate receptor ionotropic, kainate 1, sequence (P22756 whole entry): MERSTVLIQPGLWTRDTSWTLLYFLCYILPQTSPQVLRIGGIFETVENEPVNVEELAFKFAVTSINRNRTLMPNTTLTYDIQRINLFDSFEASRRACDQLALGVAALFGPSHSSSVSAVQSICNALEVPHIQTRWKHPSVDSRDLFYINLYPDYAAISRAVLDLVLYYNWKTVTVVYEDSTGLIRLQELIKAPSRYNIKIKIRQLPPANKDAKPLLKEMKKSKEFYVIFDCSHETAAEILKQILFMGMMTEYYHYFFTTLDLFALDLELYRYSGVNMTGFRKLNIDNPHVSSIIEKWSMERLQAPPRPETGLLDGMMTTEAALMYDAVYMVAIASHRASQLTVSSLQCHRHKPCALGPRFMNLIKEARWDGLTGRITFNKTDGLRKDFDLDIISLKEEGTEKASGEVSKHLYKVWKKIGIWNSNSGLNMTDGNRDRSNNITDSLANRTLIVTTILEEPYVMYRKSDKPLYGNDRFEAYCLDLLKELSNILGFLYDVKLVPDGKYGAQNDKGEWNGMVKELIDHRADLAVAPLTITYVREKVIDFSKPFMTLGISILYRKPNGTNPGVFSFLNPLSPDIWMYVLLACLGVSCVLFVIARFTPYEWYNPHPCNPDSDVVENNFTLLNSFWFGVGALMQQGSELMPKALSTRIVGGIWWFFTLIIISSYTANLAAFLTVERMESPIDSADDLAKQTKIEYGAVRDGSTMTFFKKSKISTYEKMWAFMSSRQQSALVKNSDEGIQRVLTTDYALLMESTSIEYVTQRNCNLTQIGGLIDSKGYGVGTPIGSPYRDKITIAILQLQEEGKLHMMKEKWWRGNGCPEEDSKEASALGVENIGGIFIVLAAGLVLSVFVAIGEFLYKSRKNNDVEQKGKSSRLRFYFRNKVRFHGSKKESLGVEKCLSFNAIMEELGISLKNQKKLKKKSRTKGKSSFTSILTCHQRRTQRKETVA
Glutamate receptor 3, sequence (P19492 whole entry): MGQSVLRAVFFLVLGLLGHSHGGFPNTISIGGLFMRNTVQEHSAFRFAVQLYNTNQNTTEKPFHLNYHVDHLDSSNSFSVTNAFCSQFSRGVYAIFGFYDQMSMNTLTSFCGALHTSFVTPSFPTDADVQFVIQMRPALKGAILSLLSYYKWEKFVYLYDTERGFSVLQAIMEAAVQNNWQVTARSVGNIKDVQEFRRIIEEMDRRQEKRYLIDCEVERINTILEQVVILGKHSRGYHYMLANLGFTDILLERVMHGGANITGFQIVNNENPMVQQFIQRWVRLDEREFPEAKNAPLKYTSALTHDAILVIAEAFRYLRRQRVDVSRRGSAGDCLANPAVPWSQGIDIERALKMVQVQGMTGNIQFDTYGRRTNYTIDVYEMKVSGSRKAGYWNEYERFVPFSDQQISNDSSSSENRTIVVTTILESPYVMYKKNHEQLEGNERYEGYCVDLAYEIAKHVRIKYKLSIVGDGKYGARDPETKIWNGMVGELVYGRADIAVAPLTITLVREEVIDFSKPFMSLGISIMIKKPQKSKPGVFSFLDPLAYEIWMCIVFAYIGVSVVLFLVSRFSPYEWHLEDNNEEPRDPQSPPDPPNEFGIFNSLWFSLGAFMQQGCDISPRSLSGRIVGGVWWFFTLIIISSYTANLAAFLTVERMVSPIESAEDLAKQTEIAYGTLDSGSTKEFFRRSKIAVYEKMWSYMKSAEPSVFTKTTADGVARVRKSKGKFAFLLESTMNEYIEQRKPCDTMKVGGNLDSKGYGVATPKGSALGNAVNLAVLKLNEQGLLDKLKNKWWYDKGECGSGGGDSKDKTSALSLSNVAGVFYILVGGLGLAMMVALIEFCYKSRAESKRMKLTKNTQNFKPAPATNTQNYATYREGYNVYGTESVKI

`N#Cc1cc2nc(O)c(O)nc2cc1[N+](=O)[O-]` [7-Cyano-3-hydroxy-6-nitro-quinoxalin-2-ol anion]: the Ki in test [1] is 1.8 µM; in test [2] it was > 10 µM and 5.6 µM.
For `O=C1N=c2cc(N(O)O)c(-n3ccnc3)cc2=NC1=O` [CAS_3035216], the results for the inhibition constant Ki in test [3], in test [1] and in test [2] were 0.084 µM, 2.2 µM and over 10 µM, respectively.
